From patent publication US10722563B2, “Prostate-specific tumor antigens and uses thereof” (SHENZHEN INNOVATION IMMUNOTECHNOLOGY CO., LTD., priority 2012, dated 2020)

Columns and labels:
Format in all cases: cell-based, human
[1] = tested on: PBMCs of HLA-A2+ prostate cancer patients; assay: In vitro stimulation of peptide-specific T cells in PBMCs of prostate cancer patients, IFN-γ release by ELISA; details: PBMCs stimulated in vitro with peptide; for induction of peptide-specific CTLs from PBMCs of prostate cancer patients: Table 3
Description: (§1) Ten HLA-A2+ prostate cancer patients and ten HLA-A2+ healthy subjects were enrolled in this study after written informed consent was obtained. All protocols were approved by the Institutional Review Board (IRB) of Baylor College of Medicine before commencing studies. 20 mL of peripheral blood was obtained from each person, and peripheral blood mononuclear cells (PBMCs) were isolated by density gradient centrifugation using Lymphoprep (Nycomed Pharma AS; Oslo, Norway). The freshly isolated PBMCs were cryopreserved for later use in 1 mL freezing medium containing 90% FCS and 10% dimethyl sulfoxide (DMSO) at −140° C. The expression of HLA-A2 molecules on PBMCs obtained from cancer patients and healthy subjects was verified by flow cytometry with FITC-labeled HLA-A2 mAb BB7.2 (BD Pharmingen, San Diego, Calif., USA).
(§2) PBMCs (1×10^5 cells/well) from either healthy subjects or prostate cancer patients were incubated with standard peptide concentrations of 20 μg/mL per peptide in 96-well U-bottom microplates (BD, Franklin Lakes, N.J., USA) in 200 μL of T-cell medium (TCM), consisting of RPMI 1640 (Mediatech, Manassas, Va., USA), 10% human AB serum (Valley Biomedical, Winchester, USA), 50 μM of 2-mercaptoethanol, 100 U/mL of interleukin-2 (IL-2), and 0.1 mM MEM nonessential amino acid solution (Invitrogen, Grand Island, N.Y., USA). Half of the TCM was removed and replaced with fresh TCM containing peptides (20 μg/mL) every 5 days. After 14 days of culture, the cells were harvested and tested for their ability to produce IFN-γ in response to T2 cells (1×10^4 cells/well), which were pre-loaded with either PSGR peptide (5 μg/mL) or a control peptide (an irrelevant HL-A2 binding peptide: NLLTHVESL) as a negative control. After 18 hours of incubation, supernatants were collected, and IFN-γ release was determined by ELISA assay.
(§3) Cytokine release was measured by coating 96-well ELISA plates (Thermo Fisher Scientific; Rochester, N.Y., USA) with 1 μg/mL anti-human IFN-γ (Pierce Biotechnology; Rockford, Ill., USA) overnight at 4° C. The plate was washed six times with PBS containing 0.05% Tween-20 (wash solution) to remove unbound coating antibody, and blocked with 1% BSA/PBS at room temperature for 2 hrs. Afterwards, 50 μL supernatant was added to each well and incubated at room temperature for 1 hr, then 50 μL of 0.5 μg/mL biotinylated anti-human IFN-γ (Pierce Biotechnology; Rockford, Ill., USA) was added and plates were incubated for an additional 1 hr at room temperature. After incubation, plates were washed and incubated for 30 min with Poly-HRP-Streptavidin (Thermo Fisher Scientific; Rochester, N.Y., USA) diluted 1:5000 in PBS/1% BSA. Plates were washed and 100 μL of TMB substrate solution (Sigma-Aldrich Co.; St. Louis, Mo., USA) was added per well. The colorimetric reaction was stopped using 2N H2SO4 and plates were read at 450 nm using an ELISA plate reader.
Since peptide-specific T cells against PSGR3, PSGR4 and PSGR14 were found in more than 70% of healthy subjects, we reasoned that CTL precursors that recognize these 3 peptides may also be high in PBMCs of prostate cancer patients. To test our hypothesis, we examined whether these three peptide candidates can induce peptide-specific CTLs from the PBMCs of HLA-A2+ prostate cancer patients. PBMCs from prostate cancer patients were collected and stimulated in vitro with PSGR3, PSGR4 or PSGR14 peptides.

LNCaP cells = assay: Cytotoxicity of PSGR peptide-specific T cells by LDH assay against LNCaP; details: HLA-A2 positive, PSGR expressing LNCaP; T cells from healthy donors and patients; FIG. 2B
Description: The expression of PSGR mRNA in different cell lines was determined by RT-PCR (A). PSGR derived peptide-specific T cells were tested for cytotoxicity against both PC3 and LNCaP by the LDH assay (B). Data from B are plotted as means±SD. Results are representative of three independent experiments. *P<0.05, versus control.
Cells were stained with anti-CD8 and anti-IFN-γ, then analyzed on a FACScalibur machine (A). PSGR-derived peptide-specific T cells were co-incubated with LNCaP cells alone in medium, or with LNCaP cells in the presence of either anti-HLA-I mAb (W6/32), HLA-II mAb or a control mAb (anti-CD19 mAb). After 4 hours of incubation, the cytotoxicity against LNCaP was determined by the LDH assay (B). Data from B are plotted as means±SD. Results are representative of three independent experiments. *P<0.05, versus controls.
PSGR derived peptide-specific T cells were tested for cytotoxicity against both PC3 and LNCaP by a lactate dehydrogenase (LDH) assay (Promega; Madison, Wis., USA). The assay was performed in accordance with the manufacturer's instructions. LDH release was calculated based on the following formula: Cytotoxicity (%)=(Experimental−Effector Spontaneous−Target Spontaneous LDH release)/(Target Maximum−Target Spontaneous LDH release)×100.
Spontaneous release was determined by using the supernatant of the target cells alone or effector cells alone, and the maximum release was determined by using the supernatant of target cells incubated with a lysis solution included in LDH kit. To determine if T cell recognition is HLA-I restricted, anti-HLA-I, anti-HLA-II, or anti-CD19 mAb (all from ATCC, Manassas, Va., USA) were added into wells at the initiation of the culture.

[2] = tested on: PBMCs of ten HLA-A2+ healthy subjects; assay: In vitro stimulation of peptide-specific T cells in PBMCs of healthy subjects, IFN-γ release by ELISA; details: for healthy subjects in which the peptide induced T cell responses: 10 HLA-A2+ healthy donors, IFN-γ ELISA after 2 weeks of peptide stimulation; for concentrations of IFN-γ in the supernatants: PBMCs stimulated 14 days with peptide 20 μg/mL, response to T2 cells pre-loaded with peptide 5 μg/mL
Description: as §1, §2, §3
To determine whether PSGR-reactive T cell precursors are present in healthy subjects, we obtained PBMCs from 10 HLA-A2+ healthy donors and stimulated them in vitro with each of the 21 PSGR-derived peptides containing HLA-A2-binding motif (Table 1). After 2 weeks of peptide stimulation, supernatants from peptide-stimulated T cells were analyzed by ELISA assay to detect IFN-γ release in response to T2 cells pulsed with or without corresponding peptides.

## WLAFPLCSL (PSGR4)
[1]
  induction of peptide-specific CTLs from PBMCs of prostate cancer patients: indeed induced peptide-specific CTLs
[1]; prostate cancer patient #2
  concentrations of IFN-γ in the supernatants: 451 pg/mL
[1]; prostate cancer patient #3
  concentrations of IFN-γ in the supernatants: 351 pg/mL
[1]; prostate cancer patient #12
  concentrations of IFN-γ in the supernatants: 0 pg/mL
[1]; prostate cancer patient #13
  concentrations of IFN-γ in the supernatants: 301 pg/mL
[1]; prostate cancer patient #14
  concentrations of IFN-γ in the supernatants: 309 pg/mL
[1]; prostate cancer patient #15
  concentrations of IFN-γ in the supernatants: 70 pg/mL
[1]; prostate cancer patient #16
  concentrations of IFN-γ in the supernatants: 6.7 pg/mL
[1]; prostate cancer patient #17
  concentrations of IFN-γ in the supernatants: 102 pg/mL
[1]; prostate cancer patient #22
  concentrations of IFN-γ in the supernatants: 56 pg/mL
[1]; prostate cancer patient #25
  concentrations of IFN-γ in the supernatants: 27 pg/mL
LNCaP cells
  recognition and killing of LNCaP by peptide-specific T cells: could recognize and kill
[2]
  healthy subjects in which the peptide induced T cell responses: 7 out of 10
[2]; healthy subject #1
  concentrations of IFN-γ in the supernatants: 302 pg/mL
[2]; healthy subject #2
  concentrations of IFN-γ in the supernatants: 152 pg/mL
[2]; healthy subject #3
  concentrations of IFN-γ in the supernatants: 457 pg/mL
[2]; healthy subject #4
  concentrations of IFN-γ in the supernatants: 0 pg/mL
[2]; healthy subject #5
  concentrations of IFN-γ in the supernatants: 407 pg/mL
[2]; healthy subject #6
  concentrations of IFN-γ in the supernatants: 226 pg/mL
[2]; healthy subject #7
  concentrations of IFN-γ in the supernatants: 847 pg/mL
[2]; healthy subject #8
  concentrations of IFN-γ in the supernatants: 0 pg/mL
[2]; healthy subject #9
  concentrations of IFN-γ in the supernatants: 0 pg/mL
[2]; healthy subject #10
  concentrations of IFN-γ in the supernatants: 459 pg/mL

## VILANIYLLV (PSGR14)
[1]
  induction of peptide-specific CTLs from PBMCs of prostate cancer patients: indeed induced peptide-specific CTLs
[1]; prostate cancer patient #2
  concentrations of IFN-γ in the supernatants: 344 pg/mL
[1]; prostate cancer patient #3
  concentrations of IFN-γ in the supernatants: 116 pg/mL
[1]; prostate cancer patient #12
  concentrations of IFN-γ in the supernatants: 272 pg/mL
[1]; prostate cancer patient #13
  concentrations of IFN-γ in the supernatants: 23 pg/mL
[1]; prostate cancer patient #14
  concentrations of IFN-γ in the supernatants: 0 pg/mL
[1]; prostate cancer patient #15
  concentrations of IFN-γ in the supernatants: 24 pg/mL
[1]; prostate cancer patient #16
  concentrations of IFN-γ in the supernatants: 0 pg/mL
[1]; prostate cancer patient #17
  concentrations of IFN-γ in the supernatants: 100 pg/mL
[1]; prostate cancer patient #22
  concentrations of IFN-γ in the supernatants: 8 pg/mL
[1]; prostate cancer patient #25
  concentrations of IFN-γ in the supernatants: 11 pg/mL
LNCaP cells
  recognition and killing of LNCaP by peptide-specific T cells: could recognize and kill
[2]
  healthy subjects in which the peptide induced T cell responses: 7 out of 10
[2]; healthy subject #1
  concentrations of IFN-γ in the supernatants: 471 pg/mL
[2]; healthy subject #2
  concentrations of IFN-γ in the supernatants: 0 pg/mL
[2]; healthy subject #3
  concentrations of IFN-γ in the supernatants: 115 pg/mL
[2]; healthy subject #4
  concentrations of IFN-γ in the supernatants: 0 pg/mL
[2]; healthy subject #5
  concentrations of IFN-γ in the supernatants: 124 pg/mL
[2]; healthy subject #6
  concentrations of IFN-γ in the supernatants: 296 pg/mL
[2]; healthy subject #7
  concentrations of IFN-γ in the supernatants: 843 pg/mL
[2]; healthy subject #8
  concentrations of IFN-γ in the supernatants: 0 pg/mL
[2]; healthy subject #9
  concentrations of IFN-γ in the supernatants: 346 pg/mL
[2]; healthy subject #10
  concentrations of IFN-γ in the supernatants: 854 pg/mL

## SLLISFSYLL (PSGR10)
[2]; healthy subject #1
  concentrations of IFN-γ in the supernatants: 917 pg/mL
[2]; healthy subject #2
  concentrations of IFN-γ in the supernatants: 0 pg/mL
[2]; healthy subject #3
  concentrations of IFN-γ in the supernatants: 0 pg/mL
[2]; healthy subject #4
  concentrations of IFN-γ in the supernatants: 0 pg/mL
[2]; healthy subject #5
  concentrations of IFN-γ in the supernatants: 0 pg/mL
[2]; healthy subject #6
  concentrations of IFN-γ in the supernatants: 0 pg/mL

## YLLILKTVL (PSGR5)
[2]; healthy subject #1
  concentrations of IFN-γ in the supernatants: 0 pg/mL
[2]; healthy subject #2
  concentrations of IFN-γ in the supernatants: 0 pg/mL
[2]; healthy subject #3
  concentrations of IFN-γ in the supernatants: 0 pg/mL
[2]; healthy subject #4
  concentrations of IFN-γ in the supernatants: 0 pg/mL
[2]; healthy subject #5
  concentrations of IFN-γ in the supernatants: 0 pg/mL
[2]; healthy subject #6
  concentrations of IFN-γ in the supernatants: 0 pg/mL

## LLILKTVLGL (PSGR15)
[2]; healthy subject #1
  concentrations of IFN-γ in the supernatants: 0 pg/mL
[2]; healthy subject #2
  concentrations of IFN-γ in the supernatants: 0 pg/mL
[2]; healthy subject #3
  concentrations of IFN-γ in the supernatants: 456 pg/mL
[2]; healthy subject #4
  concentrations of IFN-γ in the supernatants: 0 pg/mL
[2]; healthy subject #5
  concentrations of IFN-γ in the supernatants: 0 pg/mL
[2]; healthy subject #6
  concentrations of IFN-γ in the supernatants: 0 pg/mL

## VLNPIVYGV (PSGR1)
[2]; healthy subject #1
  concentrations of IFN-γ in the supernatants: 195 pg/mL
[2]; healthy subject #2
  concentrations of IFN-γ in the supernatants: 0 pg/mL
[2]; healthy subject #3
  concentrations of IFN-γ in the supernatants: 0 pg/mL
[2]; healthy subject #4
  concentrations of IFN-γ in the supernatants: 0 pg/mL
[2]; healthy subject #5
  concentrations of IFN-γ in the supernatants: 0 pg/mL
[2]; healthy subject #6
  concentrations of IFN-γ in the supernatants: 281 pg/mL

## LLQMFAIHSL (PSGR18)
[2]; healthy subject #1
  concentrations of IFN-γ in the supernatants: 176 pg/mL
[2]; healthy subject #2
  concentrations of IFN-γ in the supernatants: 0 pg/mL
[2]; healthy subject #3
  concentrations of IFN-γ in the supernatants: 0 pg/mL
[2]; healthy subject #4
  concentrations of IFN-γ in the supernatants: 0 pg/mL
[2]; healthy subject #5
  concentrations of IFN-γ in the supernatants: 0 pg/mL
[2]; healthy subject #6
  concentrations of IFN-γ in the supernatants: 0 pg/mL
